How the values were obtained:
A549 cells = experiment: MTT cytotoxicity, A549; format: cell-based; settings: 24 hours, RA (210 mM), HBA (220 mM)
Method: Next, to evaluate the cytotoxicity of tRABA, a 3-(4,5-dimethylthiazol-2-yl)-2,5-diphenyltetrazolium bromide (MTT)) analysis was performed. The cell survival rate was measured 24 hours after A549 cells were treated with RA, HBA, and tRABA, and the results are shown in FIG. 8C.

[1] = Reactivity of RABA in the presence of H2O2 (1H NMR after incubation); format: physicochemical
Method: To evaluate the reactivity of the prepared RABA in the presence of H2O2, ^1H NMR of the RABA was taken after incubation in a 5 mM H2O2 solution.
The peaks at 7.3 and 7.8 ppm corresponding to aromatic protons disappeared, and new peaks at 6.8 and 7.1 ppm appeared. The peaks corresponding to benzylic proton were shifted from 5.1 ppm to 5.0 ppm. On the other hand, there was no peak shift in the RABA incubated in water without H2O2.

[2] = Self-assembly of nanoparticles in water, particle size and SEM; format: physicochemical
Method: RABA dissolved in tetrahydrofuran (THF) was added to water while stirring. During dilution in water, strong light scattering occurred due to the Tyndall phenomenon. […] The mean hydrodynamic diameter was measured to be ˜120 nm.
It was confirmed that the nanoparticles existed in a spherical colloidal state. In addition, an experiment was performed to confirm self-assembly of Compound 2, which is produced during the preparation process of RA and RABA.

[3] = tested on: SW620 multicellular spheroids; experiment: Tumor penetration in multicellular spheroids; format: cell-based; settings: 6 hours
Source text: Next, SW620 multicellular spheroids were used to evaluate the tumor penetration of Nile Red-loaded tRABA nanoparticles. […] This means that tRABA penetrated much deeper into the spheroids than RABA. From this, it could be confirmed that tRABA has excellent tumor penetration.

[4] = tested on: HMGB1 released from A549 cells; experiment: HMGB-1 release; format: cell-based
Method: Next, since it is known that HMGB-1 is a nuclear protein that binds to DNA and is triggered by an apoptosis inducer and that in the late stage of apoptosis, cells are destroyed and HMGB-1 is released into the tumor microenvironment to induce dendritic cell maturation and antigen presentation, an experiment was performed to confirm the effect of tRABA nanoparticles on HMGB-1 release.

tumor model mice = experiment: Tumor growth inhibition in tumor model mice; format: in vivo, mouse; settings: i.v. on Days 1, 4, 7, 10, 13; RA 3 mg/kg, HBA 1.5 mg/kg, tRABA 5 mg/kg
Method: Next, the anticancer effect was evaluated by administering a therapeutic drug in the tumor model mice when the tumor size reached 50 mm^3. A therapeutic drug was intravenously administered on Days 1, 4, 7, 10, and 13 to the tumor model mice.

[5] = tested on: calreticulin (CRT) in A549 cells; experiment: CRT level by flow cytometry; format: cell-based
Method: Next, since immunogenic apoptosis enhances immunogenicity and anticancer effects by releasing damage-associated molecular pattern (DAMP) substances during the cell dying process, an experiment was performed to confirm whether tRABA nanoparticles induce immunogenic cell death to improve immunogenicity. First, the expression levels of DAMPs such as calreticulin (CRT) and high mobility group box 1 (HMGB1) were confirmed as endoplasmic reticulum (ER) stress markers.

GSH in A549 cells = experiment: Intracellular GSH levels; format: cell-based; design: dose or concentration left out as unconfirmed
Method: Therefore, an experiment was conducted to measure intracellular GSH levels in A549 cells treated with tRABA.

CC1=C(/C=C/C(C)=C/C=C/C(C)=C/C(=O)O)C(C)(C)CCC1 [RA, Retinoic acid]
cell survival rate / cytotoxicity (MTT) (A549 cells): the cell survival rate decreased

CC1=C(/C=C/C(C)=C/C=C/C(C)=C/C(=O)OCc2ccc(B(O)O)cc2)C(C)(C)CCC1 [RABA]
stability in water (1H NMR peak shift) ([1]; incubated in water without H2O2): no peak shift
reactivity in the presence of H2O2 (1H NMR peak shift) ([1]; incubation in a 5 mM H2O2 solution): a shift of the peak due to the release of HBA was observed
self-assembly into nanoparticles ([2]; THF solution added to water, SEM): the nanoparticles were being formed well
mean hydrodynamic diameter ([2]; nanoparticles in water): ~120 nm
spheroid penetration (fluorescence) [3]: weak fluorescence

hydroxybenzyl alcohol [HBA]
level of HMGB-1 [4]: did not affect the level of HMGB-1
tumor growth inhibition (tumor model mice): negligible inhibitory effect on tumor growth
level of CRT [5]: almost no effect
intracellular GSH levels (GSH in A549 cells): no effect on the GSH levels
